In patent US20230398130A1, “METHODS AND COMPOSITIONS FOR DIFFERENTIATING STEM CELLS” (Massachusetts Institute of Technology, priority 2020, published 2023):

Assays:
ISC-enriched organoids [1] = assay: Primary screen, 384-well 2.5-D organoid differentiation (ENR+CD, 6 days): basal lysozyme secretion (LYZ.NS); assay type: cell-based, murine; conditions: primary screen; for Dose.FC.LYZ.NS: FC vs plate median; for Z.LYZ.NS: standard z score; for SSMD.LYZ.NS: strictly standardized mean difference
Text: (§1) High-throughput screening.

ISC-enriched organoids [2] = assay: Primary screen, 384-well 2.5-D organoid differentiation (ENR+CD, 6 days, Target Selective Inhibitor Library, vs whole-plate median): ATP (CellTiter-Glo 3D, CTG); conditions: primary screen; for Dose.FC.CTG: FC vs plate median; for Z.CTG: standard z score; for SSMD.CTG: strictly standardized mean difference
ISC-enriched organoids [3] = assay: Primary screen, 384-well 2.5-D organoid differentiation (ENR+CD, 6 days): carbachol-induced lysozyme secretion (LYZ.S); assay type: cell-based, murine; conditions: primary screen; for Dose.FC.LYZ.S: FC vs plate median; for Z.LYZ.S: standard z score; for SSMD.LYZ.S: strictly standardized mean difference
Text: as §1

[4] = 1st of the 4 dose lines of the treatment (dose not given)
[5] = 2nd of the 4 dose lines of the treatment (dose not given)
[6] = 3rd of the 4 dose lines of the treatment (dose not given)
[7] = 4th of the 4 dose lines of the treatment (dose not given)

O=C(Nc1ccccc1)N1CCN(c2nc(-c3ccccc3)ns2)CC1 [JNJ-1661010]
Dose.FC.LYZ.NS (ISC-enriched organoids [1]; Dose 0.08 uM): 0.122 log 2 fold change
Z.LYZ.NS (ISC-enriched organoids [1]; Dose 0.08 uM): 1.066
Dose.FC.LYZ.NS (ISC-enriched organoids [1]; Dose 0.40 uM): 0.075 log 2 fold change
Z.LYZ.NS (ISC-enriched organoids [1]; Dose 0.40 uM): 0.653
Dose.FC.LYZ.NS (ISC-enriched organoids [1]; Dose 2.00 uM): 0.103 log 2 fold change
Z.LYZ.NS (ISC-enriched organoids [1]; Dose 2.00 uM): 0.897
Dose.FC.LYZ.NS (ISC-enriched organoids [1]; Dose 10.00 uM): 0.047 log 2 fold change
Z.LYZ.NS (ISC-enriched organoids [1]; Dose 10.00 uM): 0.406
SSMD.LYZ.NS (ISC-enriched organoids [1]; [4]): 0.805
SSMD.LYZ.NS (ISC-enriched organoids [1]; [5]): 0.332
SSMD.LYZ.NS (ISC-enriched organoids [1]; [6]): 0.332
SSMD.LYZ.NS (ISC-enriched organoids [1]; [7]): 0.237
Dose.FC.CTG (ISC-enriched organoids [2]; Dose 0.08 uM): −0.094 log 2 fold change
Z.CTG (ISC-enriched organoids [2]; Dose 0.08 uM): −0.225
Dose.FC.CTG (ISC-enriched organoids [2]; Dose 0.40 uM): −0.262 log 2 fold change
Z.CTG (ISC-enriched organoids [2]; Dose 0.40 uM): −0.625
Dose.FC.CTG (ISC-enriched organoids [2]; Dose 2.00 uM): −0.055 log 2 fold change
Z.CTG (ISC-enriched organoids [2]; Dose 2.00 uM): −0.131
Dose.FC.CTG (ISC-enriched organoids [2]; Dose 10.00 uM): −0.145 log 2 fold change
Z.CTG (ISC-enriched organoids [2]; Dose 10.00 uM): −0.346
SSMD.CTG (ISC-enriched organoids [2]; [4]): −0.169
SSMD.CTG (ISC-enriched organoids [2]; [5]): −0.659
SSMD.CTG (ISC-enriched organoids [2]; [6]): −0.113
SSMD.CTG (ISC-enriched organoids [2]; [7]): −0.309
Dose.FC.LYZ.S (ISC-enriched organoids [3]; Dose 0.08 uM): 0.135 log 2 fold change
Dose.FC.LYZ.S (ISC-enriched organoids [3]; Dose 0.40 uM): 0.041 log 2 fold change
Dose.FC.LYZ.S (ISC-enriched organoids [3]; Dose 2.00 uM): −0.063 log 2 fold change
Dose.FC.LYZ.S (ISC-enriched organoids [3]; Dose 10.00 uM): −0.068 log 2 fold change
Z.LYZ.S (ISC-enriched organoids [3]; [4]): 0.873
Z.LYZ.S (ISC-enriched organoids [3]; [5]): 0.263
Z.LYZ.S (ISC-enriched organoids [3]; [6]): −0.408
Z.LYZ.S (ISC-enriched organoids [3]; [7]): −0.441
SSMD.LYZ.S (ISC-enriched organoids [3]; [4]): 0.612
SSMD.LYZ.S (ISC-enriched organoids [3]; [5]): 0.250
SSMD.LYZ.S (ISC-enriched organoids [3]; [6]): −0.454
SSMD.LYZ.S (ISC-enriched organoids [3]; [7]): −0.449

Cc1ccc(NCCCc2ccccc2)c(N)c1 [JSH-23]
Dose.FC.LYZ.NS (ISC-enriched organoids [1]; Dose 0.08 uM): 0.054 log 2 fold change
Z.LYZ.NS (ISC-enriched organoids [1]; Dose 0.08 uM): 0.474
Dose.FC.LYZ.NS (ISC-enriched organoids [1]; Dose 0.40 uM): 0.079 log 2 fold change
Z.LYZ.NS (ISC-enriched organoids [1]; Dose 0.40 uM): 0.688
Dose.FC.LYZ.NS (ISC-enriched organoids [1]; Dose 2.00 uM): −0.002 log 2 fold change
Z.LYZ.NS (ISC-enriched organoids [1]; Dose 2.00 uM): −0.017
Dose.FC.LYZ.NS (ISC-enriched organoids [1]; Dose 10.00 uM): −0.046 log 2 fold change
Z.LYZ.NS (ISC-enriched organoids [1]; Dose 10.00 uM): −0.399
SSMD.LYZ.NS (ISC-enriched organoids [1]; [4]): 0.371
SSMD.LYZ.NS (ISC-enriched organoids [1]; [5]): 0.452
SSMD.LYZ.NS (ISC-enriched organoids [1]; [6]): −0.012
SSMD.LYZ.NS (ISC-enriched organoids [1]; [7]): −0.250
Dose.FC.CTG (ISC-enriched organoids [2]; Dose 0.08 uM): 0.193 log 2 fold change
Z.CTG (ISC-enriched organoids [2]; Dose 0.08 uM): 0.462
Dose.FC.CTG (ISC-enriched organoids [2]; Dose 0.40 uM): 0.230 log 2 fold change
Z.CTG (ISC-enriched organoids [2]; Dose 0.40 uM): 0.548
Dose.FC.CTG (ISC-enriched organoids [2]; Dose 2.00 uM): 0.074 log 2 fold change
Z.CTG (ISC-enriched organoids [2]; Dose 2.00 uM): 0.176
Dose.FC.CTG (ISC-enriched organoids [2]; Dose 10.00 uM): 0.046 log 2 fold change
Z.CTG (ISC-enriched organoids [2]; Dose 10.00 uM): 0.110
SSMD.CTG (ISC-enriched organoids [2]; [4]): 0.462
SSMD.CTG (ISC-enriched organoids [2]; [5]): 0.536
SSMD.CTG (ISC-enriched organoids [2]; [6]): 0.179
SSMD.CTG (ISC-enriched organoids [2]; [7]): 0.139
Dose.FC.LYZ.S (ISC-enriched organoids [3]; Dose 0.08 uM): 0.164 log 2 fold change
Dose.FC.LYZ.S (ISC-enriched organoids [3]; Dose 0.40 uM): 0.106 log 2 fold change
Dose.FC.LYZ.S (ISC-enriched organoids [3]; Dose 2.00 uM): 0.005 log 2 fold change
Dose.FC.LYZ.S (ISC-enriched organoids [3]; Dose 10.00 uM): −0.026 log 2 fold change
Z.LYZ.S (ISC-enriched organoids [3]; [4]): 1.064
Z.LYZ.S (ISC-enriched organoids [3]; [5]): 0.686
Z.LYZ.S (ISC-enriched organoids [3]; [6]): 0.032
Z.LYZ.S (ISC-enriched organoids [3]; [7]): −0.171
SSMD.LYZ.S (ISC-enriched organoids [3]; [4]): 1.259
SSMD.LYZ.S (ISC-enriched organoids [3]; [5]): 0.611
SSMD.LYZ.S (ISC-enriched organoids [3]; [6]): 0.030
SSMD.LYZ.S (ISC-enriched organoids [3]; [7]): −0.147
